Values quoted from earlier work in patent US20250009631A1, “METHOD OF NAIL STRENGTHENING WITH A COMPLEX MICHAEL ADDITION TREATMENT COMPOSITION” (Wella Operations US, LLC, priority 2023, published 2025).
Like-named read-outs stand apart in the source and are kept apart here.

Settings: nail plate

c1ccncc1 [pyridine]
permeability coefficient (pH 2): at least some permeation | permeability coefficient (pH 7.4): high permeation coefficient
